Measurements taken from US20250360134A1, “6-6 OR 5-6 FUSED BICYCLIC COMPOUNDS COMPRISING A PYRI(MI)DINE RING USEFUL IN THE|TREATMENT OF INFECTIOUS DISEASES” (INSTITUT NATIONAL DE LA SANTE ET DE LA RECHERCHE MEDICALE …, priority 2020, published 2025).
Counter-ions that a name gives are not always drawn. Like-named read-outs stand apart in the source and are kept apart here.

How the values were obtained:
Plasmodium falciparum W2 = test: In vitro antiplasmodial activity, SYBR Green I, strain W2
Method: (§1) The in vitro antiplasmodial activities were tested over concentrations ranging from 39 to 40 μm against culture-adapted Plasmodium falciparum: reference strains 3D7 and W2. […] The parasites were cultivated in RPMI medium (Sigma-Aldrich, Lyon, France) supplemented with 0.5% Albumax I (Life Technologies Corporation, Paisley, UK), hypoxanthine (Sigma-Aldrich), and gentamicin (Sigma-Aldrich) with human erythrocytes and were incubated at 37° C. in a candle jar, as described in Desjardins R E et al., Antimicrob Agents Chemother, 1979; 16:710-18.
(§2) The P. falciparum drug susceptibility test was carried out in 96-well flat bottom sterile plates in a final volume of 250 μL. After a 48-hour incubation with the drugs, quantities of DNA in treated and control cultures of parasites in human erythrocytes were quantified using the SYBR Green I (Sigma-Aldrich) fluorescence-based method as described in Bennett T N et al, Antimicrob Agents Chemother, 2004; 48:1807-10. Briefly, after incubation, plates were frozen at −20° C. until use. Plates were then thawed for 2 hours at room temperature, and 100 μL of each homogenized culture was transferred to a well of a 96-well flat bottom sterile black plate (Nunc, Inc., Rochester, NY) that contained 100 μL of the SYBR Green I lysis buffer (2×SYBR Green, 20 mM Tris base pH 7.5, 5 mM EDTA, 0.008% w/v saponin, 0.08% w/v Triton X-100). […] Plates were incubated for 1 hour at room temperature and then read on a fluorescence plate reader (Tecan, Grödig, Austria) using excitation and emission wavelengths of 485 and 535 nm, respectively. Concentrations inhibiting 50% of the parasite's growth (half maximal inhibitory concentration or IC50 values) were then calculated from the obtained experimental results by non-linear regression analysis of data from dose-response curves, using TableCurve 2D version 5.0 software (Systat Software, San Jose, CA). IC50 values are reported as means calculated from three independent experiments, as described in H. Kaddouri et al., Antimicrob.

[1] = tested on: Plasmodium falciparum 3D7; test: In vitro antiplasmodial activity, SYBR Green I, strain 3D7
Method: as §1, §2

[2] = tested on: T. brucei brucei AnTat 1.9; test: In vitro antitrypanosomal activity, Alamar Blue assay; assay type: cell-based, Trypanosoma brucei brucei; conditions: Trypanosoma brucei, read-out: IC50 T. brucei brucei
Method: The effects of the tested compounds on the growth of T. brucei brucei were assessed using an Alamar Blue® assay described in B. Raz et al., Acta Trop. 1997, 68, 139. T. brucei brucei AnTat 1.9 (IMTA, Antwerpen, Belgium) was cultured in MEM with Earle's salts, supplemented according to the protocol disclosed in T. Baltz et al., EMBO J. 1985, 4, 1273, with the following modifications: 0.5 mM mercaptoethanol (Sigma-Aldrich), 1.5 mM 1-cysteine (Sigma-Aldrich), 0.05 mM bathocuproine sulfate (Sigma-Aldrich), and 20% heat-inactivated horse serum (Gibco, France) at 37° C. and 5% CO2. Samples were incubated at an average density of 2000 parasites/well in sterile 96-well plates (Fisher, France) with various concentrations of compounds dissolved in 0.9% NaCl. All doses were tested in duplicate. Appropriate controls treated with solvents 0.9% NaCl or DMSO or with suramin, pentamidine, eflornithine, and fexinidazole (reference drugs purchased from Sigma-Aldrich and Fluorochem, UK) were added to each set of experiments. After a 69-hour incubation at 37° C., 10 μl of the viability marker Alamar Blue (Fisher) was added to each well, and the plates were incubated for 5 hour. The plates were read in a PerkinElmer ENSPIRE (Germany) microplate reader using an excitation wavelength of 530 nm and an emission wavelength of 590 nm. The IC50 was defined as the concentration of drug necessary to inhibit by 50% the activity of T. brucei brucei compared to the control. IC50 values were calculated using a non-linear regression analysis of dose-response curves performed using GraphPad Prism software (USA). IC50 values were calculated from three independent experiments.

[3] = tested on: human telomeric sequence F21T; test: FRET-melting, F21T; conditions: K+ condition, 2 μM compound, 0.2 μM oligonucleotide
[4] = tested on: human duplex sequence FdxT; test: FRET-melting, FdxT; conditions: duplex control, K+ condition, 2 μM compound, 0.2 μM oligonucleotide
[5] = tested on: Plasmodium telomeric sequence FPf1T; test: FRET-melting, FPf1T; conditions: K+ condition, 2 μM compound, 0.2 μM oligonucleotide
[6] = tested on: Plasmodium telomeric sequence FPf8T; test: FRET-melting, FPf8T; conditions: K+ condition, 2 μM compound, 0.2 μM oligonucleotide
[7] = tested on: Trypanosoma 9 and 11 chromosomic sequence FTrypBT; test: FRET-melting, FTrypBT; conditions: K+ condition, 2 μM compound, 0.2 μM oligonucleotide
[8] = Plasmodium falciparum, W2, 48 h, read-out: IC50 Plasmodium falciparum W2, chloroquine-resistant strain W2, 48-hour incubation
[9] = Plasmodium falciparum, 3D7, 48 h, read-out: IC50 Plasmodium falciparum 3D7, chloroquine-sensitive strain 3D7, 48-hour incubation
[10] = 69-hour incubation, Alamar Blue
[11] = read-out: IC50 Plasmodium falciparum W2, chloroquine-resistant strain W2, 48-hour incubation
[12] = read-out: IC50 Plasmodium falciparum 3D7, chloroquine-sensitive strain 3D7, 48-hour incubation
[13] = read-out: IC50 Plasmodium falciparum 3D7, chloroquine-sensitive strain 3D7, 48-hour incubation, oxalate

Compound	IC50 (Plasmodium falciparum W2; [8])	IC50 [1, 9]	IC50 [2, 10]	FRET-melting values in K+ conditions at 2 μM ΔTm F21T [3]	FRET-melting values in K+ conditions at 2 μM ΔTm FdxT [4]	FRET-melting values in K+ conditions at 2 μM ΔTm FPf1T [5]	FRET-melting values in K+ conditions at 2 μM ΔTm FPf8T [6]	FRET-melting values in K+ conditions at 2 μM ΔTm FtryBT [7]	IC50 (Plasmodium falciparum W2; [11])	IC50 [1, 12]	IC50 (Plasmodium falciparum W2; read-out: IC50 Plasmodium falciparum W2, chloroquine-resistant strain W2, 48-hour incubation, oxalate)	IC50 [1, 13]	IC50 ([2]; 69 h)
CN(C)CCCNCc1ccc(-n2ccc3c(-c4ccccc4)nc(-c4ccccc4)nc32)cc1 [Compound 12B, 7-(4-[(3-Dimethylaminopropyl)aminomethyl]phenyl)-2,4-diphenyl-7H-pyrrolo[2,3-d]pyrimidine oxalate]	9.14 µM	0.38 ± 0.25 µM											
CN(C)CCCNCc1ccc(-c2nc3c(c(-c4ccc(CNCCCN(C)C)cc4)n2)CCNC3)cc1 [Compound 25B, 2,4-Bis{4-[(3-dimethylaminopropyl)aminomethyl]phenyl})-5,6,7,8-dihydropyrido[3,4-d]pyrimidine oxalate]	2.23 ± 0.23 µM	0.79 ± 0.12 µM	2.43 ± 0.1 µM	12.3 °C	−0.9 °C	10.7 °C	11.1 °C	8.0 °C					
CN1CCN(CCCCNCc2ccc(-c3nc(-c4ccc(CNCCCCN5CCN(C)CC5)cc4)c4cnn(-c5ccccc5)c4n3)cc2)CC1 [Compound 42B]				30.2 °C	6.8 °C	33.2 °C	32.1 °C	30. ° C.	2.37 ± 0.13 µM	0.7 ± 0.15 µM			
CN(C)CCCNCc1ccc(-c2nc3c(c(-c4ccc(CNCCCN(C)C)cc4)n2)CCN(C(=O)OC(C)(C)C)C3)cc1 [Compound 24B, Tert-butyl 2,4-bis{4-[(3-dimethylaminopropyl)aminomethyl]phenyl})-5,6-dihydropyrido[3,4-d]pyrimidine-7(8H)-carboxylate oxalate]	0.18 ± 0.04 µM	1.63 ± 0.25 µM	0.78 ± 0.06 µM	10.3 °C	−0.7 °C	9.1 °C	11.6 °C	7.6 °C					
CN(C)CCCNCc1ccc(-c2cc(Cl)nc3c2ccn3-c2ccccc2)cc1 [Compound 47B, 6-Chloro-4-{4-[(3-dimethylaminopropyl)aminomethyl]phenyl}-1-phenyl-1H-pyrrolo[2,3-b]pyridine oxalate]	0.72 ± 0.3 µM	0.15 ± 0.02 µM		2.8 °C	−0.2 °C	3.3 °C	4.0 °C	4.3 °C					
CN(C)CCCNCc1ccc(-c2nc(Cl)nc3c2ncn3-c2ccccc2)cc1 [Compound 43B, 2-Chloro-4-{4-[(3-dimethylaminopropyl)aminomethyl]phenyl}-7-phenyl-7H-imidazo[4,5-d]pyrimidine oxalate]	0.83 ± 0.17 µM	1.53 ± 0.39 µM		1.7 °C	0.04 °C	2.4 °C	3.3 °C	2.7 °C					
CN(C)CCCCCNCc1ccc(-c2nc(-c3ccc(CNCCCCCN(C)C)cc3)c3cnn(-c4ccccc4)c3n2)cc1 [Compound 38B, 4,6-Bis{4-[(5-dimethylaminopentyl)aminomethyl]phenyl}-1-phenyl-1H-pyrazolo[3,4-d]pyrimidine oxalate]											4.73 ± 0.28 µM	0.35 ± 0.09 µM	
CN1CCN(CCCNCc2ccc(-c3nc(Cl)nc4c3ccn4-c3ccccc3)cc2)CC1 [Compound 18B, 2-chloro-4-{4-[(3-(4-methylpiperazin-1-yl)propyl)aminomethyl]phenyl}-7-phenyl-7H-pyrrolo[2,3-d]pyrimidine oxalate]	6.96 ± 0.65 µM	0.68 ± 0.13 µM											0.06 µM
CN(C)CCCNCc1cc(-c2nc(Cl)nc3c2ccn3-c2ccccc2)cs1 [Compound 20B, 2-Chloro-4-{2-[(3-dimethylaminopropyl)aminomethyl]thien-4-yl}-7-phenyl-7H-pyrrolo[2,3-d]pyrimidine oxalate]	13.6 ± 0.43 µM	0.59 ± 0.17 µM											0.08 µM
CN(C)CCCNCc1ccc(-c2nc(-c3ccc(CNCCCN(C)C)cc3)c3cnn(-c4ccccc4)c3n2)cc1 [Compound 36B, 4,6-Bis{4-[(3-dimethylaminopropyl)aminomethyl]phenyl}-1-phenyl-1H-pyrazolo[3,4-d]pyrimidine oxalate]	0.93 ± 0.15 µM	2.51 ± 0.25 µM											
CN1CCN(CCCNCc2ccc(-n3ccc4c(-c5ccccc5)nc(Cl)nc43)cc2)CC1 [Compound 23B, 2-Chloro-7-(4-[(3-(4-methylpiperazin-1-yl)propyl)aminomethyl]phenyl)-4-phenyl-7H-pyrrolo[2,3-d]pyrimidine oxalate]	9.14 µM	0.38 ± 0.25 µM											
CN1CCN(CCCCNCc2ccc(-c3nc(-c4ccc(CNCCCCN5CCN(C)CC5)cc4)c4cnn(-c5ccccc5)c4n3)cc2)CC1 [Compound 39B, 4,6-Bis{4-[(4-(4-methylpiperazin-1-yl)butyl)aminomethyl]phenyl}-1-phenyl-1H-pyrazolo[3,4-d]pyrimidine oxalate]	1.53 ± 0.09 µM											1.83 ± 0.47 µM	
CN(C)CCCCNCc1ccc(-c2nc(-c3ccc(CNCCCCN(C)C)cc3)c3cnn(-c4ccccc4)c3n2)cc1 [Compound 37B, 4,6-Bis{4-[(4-dimethylaminobutyl)aminomethyl]phenyl}-1-phenyl-1H-pyrazolo[3,4-d]pyrimidine]	1.18 ± 0.12 µM												
COC(=O)C(CCCCNCc1ccc(-c2nc(-c3ccc(CNCCCCC(NC(=O)OC(C)(C)C)C(=O)OC)cc3)c3ccn(C)c3n2)cc1)NC(=O)OC(C)(C)C (stereo not shown) [Compound 10B, 2,4-Bis{4-[(5-(tert-butoxycarbonylamino)-5-methoxycarbonyl)pentyl)aminomethyl]phenyl}-7-methyl-7H-pyrrolo[2,3-d]pyrimidine oxalate]	4.36 ± 1.7 µM	0.61 ± 0.24 µM	7.05 ± 0.66 µM	11.8 °C	−1.0 °C	10.1 °C	11.0 °C	8.9 °C					
CN(C)CCCNCc1ccc(-n2ccc3c(-c4ccccc4)nc(Cl)nc32)cc1 [Compound 22B, 2-Chloro-7-(4-[(3-dimethylaminopropyl)aminomethyl]phenyl)-4-phenyl-7H-pyrrolo[2,3-d]pyrimidine oxalate]	0.73 ± 0.22 µM	0.8 ± 0.41 µM											0.03 µM
CN(C)CCCCNCc1ccc(-c2nc(-c3ccc(CNCCCCN(C)C)cc3)c3ncn(-c4ccccc4)c3n2)cc1 [Compound 40B, 2,4-Bis{4-[(4-dimethylaminobutyl)aminomethyl]phenyl}-7-phenyl-7H-imidazo[4,5-d]pyrimidine oxalate]	1.77 ± 0.09 µM	4.74 ± 0.9 µM		31.68 °C	8.51 °C	35.1 °C	33.9 °C	30.3 °C					
CN(C)CCCCCNCc1ccc(-c2nc(-c3ccc(CNCCCCCN(C)C)cc3)c3cnn(-c4ccccc4)c3n2)cc1 [Compound 41B]				34.0 °C	9.7 °C	36.4 °C	34.9 °C	33.0 °C	1.99 ± 0.12 µM	1.99 ± 0.9 µM			
COC(=O)C(N)CCCCNCc1ccc(-c2nc(-c3ccc(CNCCCCC(N)C(=O)OC)cc3)c3ccn(C)c3n2)cc1 (stereo not shown) [Compound 11B, 2,4-Bis{4-[(5-amino-5-(methoxycarbonyl)pentyl)aminomethyl]phenyl}-7-methyl-7H-pyrrolo[2,3-d]pyrimidine oxalate]	0.07 ± 0.01 µM	> 40 µM	5.04 ± 0.73 µM										
